In brackets after ≈: the same amount, converted by molar mass. Read-outs that look alike come from different tables or passages of the source.
Legend:
[1] = target: T1, full-length beta-Catenin (Uniprot ID P35222) (Homo sapiens, UniProt P35222); assay: Fluorescence polarization IC50 (beta-catenin / 5FAM-TCF4 10-53 competition); type: binding
T1 construct: 10 nM full-length beta-Catenin (Uniprot ID P35222)
T1 sequence (P35222 1-781): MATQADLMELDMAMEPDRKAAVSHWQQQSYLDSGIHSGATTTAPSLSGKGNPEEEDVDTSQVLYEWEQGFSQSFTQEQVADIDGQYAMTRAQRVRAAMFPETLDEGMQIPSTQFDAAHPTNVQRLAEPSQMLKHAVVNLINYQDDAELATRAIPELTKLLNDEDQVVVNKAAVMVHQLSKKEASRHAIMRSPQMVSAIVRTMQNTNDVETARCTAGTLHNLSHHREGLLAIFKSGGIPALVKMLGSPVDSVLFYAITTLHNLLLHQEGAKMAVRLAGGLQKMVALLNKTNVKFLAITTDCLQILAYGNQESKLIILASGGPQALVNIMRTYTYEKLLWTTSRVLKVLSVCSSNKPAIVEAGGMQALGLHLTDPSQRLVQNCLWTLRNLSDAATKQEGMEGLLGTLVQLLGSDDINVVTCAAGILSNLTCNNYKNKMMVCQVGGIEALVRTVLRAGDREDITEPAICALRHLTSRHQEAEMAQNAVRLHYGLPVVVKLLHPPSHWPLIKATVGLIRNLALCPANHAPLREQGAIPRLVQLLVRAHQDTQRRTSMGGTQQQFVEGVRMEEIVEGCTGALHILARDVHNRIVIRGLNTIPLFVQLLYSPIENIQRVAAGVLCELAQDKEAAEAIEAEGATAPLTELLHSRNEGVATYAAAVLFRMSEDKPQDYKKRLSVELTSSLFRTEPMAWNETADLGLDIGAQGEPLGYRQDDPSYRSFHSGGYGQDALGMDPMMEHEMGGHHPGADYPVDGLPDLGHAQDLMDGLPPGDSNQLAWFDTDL

CHI Log D procedure = type: physicochemical; conditions: for chromatographic logD: pH 7.4, CHI Log D; for CHI Log D: pH 7.4
Solubility in PBS = type: physicochemical
Outline: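 The PBS solution was ultracentrifuged and the supernatant analyzed by HPLC. Its peak area was divided by that of a 50 μM peptide DMSO reference injection and multiplied by 50 uM to give solubility.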

[2] = target: T2, beta-catenin/TCF4 engagement (Homo sapiens, UniProt P35222); assay: Nano-BRET target engagement assay (B-cat-Halo & TCF4-Luc in HEK293 cells); type: cell-based; conditions: for inhibition at 10 µM: HEK293, 10 uM, read-out: NanoBRET % inh @ 10 uM
T2 construct: expressed in transfected cells; host or cells: HEK293
T2 sequence (P35222 1-781): T1 sequence (P35222 1-781)

[3] = fluorescence polarization, beta-catenin, read-out: FP EC50
[4] = absolute IC50, read-out: NanoBRET Abs IC50

SMILES | IC50 ([1]; read-out: beta-Catenin FP IC50) [µM] | chromatographic logD (CHI Log D procedure) | Solubility (Solubility in PBS; Solubility (uM)) [µM] | IC50 ([2]; read-out: NanoBRET Abs IC50) [µM] | inhibition at 10 µM [2] [%] | IC50 ([2]; read-out: NanoBRET IC50) [µM] | IC50 [1, 3] [µM] | CHI Log D (CHI Log D procedure) | Solubility (Solubility in PBS) [µM] | IC50 [2, 4] [µM]
CC(=O)N1CCC[C@]12CC=CCCCC1(CCCC=CCCCOC(=O)N3CC[C@@](C(=O)N[C@@H](Cc4ccsc4)C(=O)N[C@@H](Cc4csc5ccccc45)C(=O)N[C@@H](CC(N)=O)C(=O)N[C@@H](C)C(N)=O)(C3)NC(=O)[C@H](CC(N)=O)NC(=O)[C@H](Cc3ccccc3)NC(=O)[C@H](C)NC(=O)[C@H](C)NC(=O)[C@H](CC(=O)O)NC(=O)[C@H](CC(=O)O)NC1=O)NC(=O)[C@H](CC(C)(C)C)NC(=O)[C@H](CC(=O)O)NC2=O (stereo partly drawn) [I-821, Ac-PL3-Asp-Npg-B5-Asp-Asp-Ala-Ala-Phe-Asn-PyrS2-3Thi-BztA-Asn-Ala-NH2] | 0.005 | 2.07 | 36 (≈ 71.1 µg/mL) | 9.1 |  |  |  |  |  | 
CC(=O)N1CCC[C@]12CC=CCCCC1(CCCC=CCCCOC(=O)N3CC[C@@](C(=O)N[C@@H](Cc4ccsc4)C(=O)N[C@@H](Cc4csc5ccccc45)C(=O)N[C@@H](Cc4c[nH]cn4)C(=O)N[C@H](C)C(N)=O)(C3)NC(=O)[C@H](CC(N)=O)NC(=O)[C@H](Cc3ccccc3)NC(=O)[C@H](C)NC(=O)[C@H](C)NC(=O)[C@H](CC(=O)O)NC(=O)[C@H](CC(=O)O)NC1=O)NC(=O)[C@H](CC(C)(C)C)NC(=O)[C@H](CC(=O)O)NC2=O (stereo partly drawn) [I-823, Ac-PL3-Asp-Npg-B5-Asp-Asp-Ala-Ala-Phe-Asn-PyrS2-3Thi-BztA-His-dAla-NH2] | 0.005 | 2.09 | 32 (≈ 63.9 µg/mL) | 18.3 | 37.5 | > 10 |  |  |  | 
CC(=O)N1CCC[C@]12CC=CCCCC1(CCCC=CCCCOC(=O)N3CC[C@@](C(=O)N[C@@H](Cc4ccsc4)C(=O)N[C@@H](Cc4csc5ccccc45)C(=O)N[C@@H](CC(N)=O)C(=O)N[C@H](C)C(N)=O)(C3)NC(=O)[C@H](CC(N)=O)NC(=O)[C@H](Cc3ccccc3)NC(=O)[C@H](C)NC(=O)[C@H](C)NC(=O)[C@H](CC(=O)O)NC(=O)[C@H](CC(=O)O)NC1=O)NC(=O)[C@H](CC(C)(C)C)NC(=O)[C@H](CC(=O)O)NC2=O (stereo partly drawn) [I-824, Ac-PL3-Asp-Npg-B5-Asp-Asp-Ala-Ala-Phe-Asn-PyrS2-3Thi-BztA-Asn-dAla-NH2] | 0.007 | 2.06 | 36 (≈ 71.1 µg/mL) | 14.7 |  |  |  |  |  | 
CC(=O)N1CCC[C@]12CC=CCCCC1(CCCC=CCCCCOC(=O)N3CC[C@@](C(=O)N[C@@H](Cc4ccsc4)C(=O)N[C@@H](Cc4csc5ccccc45)C(=O)N[C@@H](CCC(N)=O)C(=O)N[C@@H](C)C(N)=O)(C3)NC(=O)[C@H](CC(N)=O)NC(=O)[C@H](Cc3ccccc3)NC(=O)[C@H](C)NC(=O)[C@H](C)NC(=O)[C@H](CC(=O)O)NC(=O)[C@H](CC(=O)O)NC1=O)NC(=O)[C@H](CC(C)(C)C)NC(=O)[C@H](CC(=O)O)NC2=O (stereo partly drawn) [I-826, Ac-PL3-Asp-Npg-B5-Asp-Asp-Ala-Ala-Phe-Asn-PyrS3-3Thi-BztA-Gln-Ala-NH2] | 0.015 |  |  | 22.7 |  |  | 0.015 | 2.066 | 30 (≈ 60.1 µg/mL) | 
CC(=O)N1CCC[C@]12CC=CCCCC1(CCCC=CCCCCOC(=O)N3CC[C@@](C(=O)N[C@@H](Cc4ccsc4)C(=O)N[C@@H](Cc4csc5ccccc45)C(=O)N[C@@H](CC(N)=O)C(=O)N[C@@H](C)C(N)=O)(C3)NC(=O)[C@H](CC(N)=O)NC(=O)[C@H](Cc3ccccc3)NC(=O)[C@H](C)NC(=O)[C@H](C)NC(=O)[C@H](CC(=O)O)NC(=O)[C@H](CC(=O)O)NC1=O)NC(=O)[C@H](CC(C)(C)C)NC(=O)[C@H](CC(=O)O)NC2=O (stereo partly drawn) [I-829, Ac-PL3-Asp-Npg-B5-Asp-Asp-Ala-Ala-Phe-Asn-PyrS3-3Thi-BztA-Asn-Ala-NH2] | 0.015 | 2.08 | 34 (≈ 67.6 µg/mL) | 30.2 |  |  |  |  |  | 
CC(=O)N1CCC[C@]12CC=CCCCC1(CCCC=CCCCCOC(=O)N3CC[C@@](C(=O)N[C@@H](Cc4ccsc4)C(=O)N[C@@H](Cc4csc5ccccc45)C(=O)N[C@@H](CCC(N)=O)C(=O)N[C@H](C)C(N)=O)(C3)NC(=O)[C@H](CC(N)=O)NC(=O)[C@H](Cc3ccccc3)NC(=O)[C@H](C)NC(=O)[C@H](C)NC(=O)[C@H](CC(=O)O)NC(=O)[C@H](CC(=O)O)NC1=O)NC(=O)[C@H](CC(C)(C)C)NC(=O)[C@H](CC(=O)O)NC2=O (stereo partly drawn) [I-831, Ac-PL3-Asp-Npg-B5-Asp-Asp-Ala-Ala-Phe-Asn-PyrS3-3Thi-BztA-Gln-dAla-NH2] | 0.011 |  |  | 25.6 | 32.4 |  | 0.011 | 2.075 | 50 (≈ 100 µg/mL) | 
CC(=O)N1CCC[C@]12CC=CCCCC1(CCCC=CCCCCOC(=O)N3CC[C@@](C(=O)N[C@@H](Cc4ccsc4)C(=O)N[C@@H](Cc4csc5ccccc45)C(=O)N[C@@H](Cc4c[nH]cn4)C(=O)N[C@H](C)C(N)=O)(C3)NC(=O)[C@H](CC(N)=O)NC(=O)[C@H](Cc3ccccc3)NC(=O)[C@H](C)NC(=O)[C@H](C)NC(=O)[C@H](CC(=O)O)NC(=O)[C@H](CC(=O)O)NC1=O)NC(=O)[C@H](CC(C)(C)C)NC(=O)[C@H](CC(=O)O)NC2=O (stereo partly drawn) [I-833, Ac-PL3-Asp-Npg-B5-Asp-Asp-Ala-Ala-Phe-Asn-PyrS3-3Thi-BztA-His-dAla-NH2] | 0.008 |  |  | 48.1 |  |  | 0.008 | 2.146 | 50 (≈ 101 µg/mL) | 
CC(=O)N1CCC[C@]12CC=CCCCC1(CCCC=CCCCCOC(=O)N3CC[C@@](C(=O)N[C@@H](Cc4ccsc4)C(=O)N[C@@H](Cc4csc5ccccc45)C(=O)N[C@@H](CC(N)=O)C(=O)N[C@H](C)C(N)=O)(C3)NC(=O)[C@H](CC(N)=O)NC(=O)[C@H](Cc3ccccc3)NC(=O)[C@H](C)NC(=O)[C@H](C)NC(=O)[C@H](CC(=O)O)NC(=O)[C@H](CC(=O)O)NC1=O)NC(=O)[C@H](CC(C)(C)C)NC(=O)[C@H](CC(=O)O)NC2=O (stereo partly drawn) [I-835, Ac-PL3-Asp-Npg-B5-Asp-Asp-Ala-Ala-Phe-Asn-PyrS3-3Thi-BztA-Asn-dAla-NH2] | 0.011 |  |  | 37.6 | 27.6 |  | 0.011 | 2.109 | 50 (≈ 99.5 µg/mL) | 
CC(=O)N1CCC[C@]12CC=CCCCC1(CCCC=CCCCOC(=O)N3CC[C@@](C(=O)N[C@@H](Cc4ccsc4)C(=O)N[C@@H](Cc4csc5ccccc45)C(=O)N[C@@H](CCC(N)=O)C(N)=O)(C3)NC(=O)[C@H](CC(N)=O)NC(=O)[C@H](Cc3ccccc3)NC(=O)[C@H](C)NC(=O)[C@H](C)NC(=O)[C@H](CC(N)=O)NC(=O)[C@H](CC(=O)O)NC1=O)NC(=O)[C@H](CC(C)(C)C)NC(=O)[C@H](CC(=O)O)NC2=O (stereo partly drawn) [I-836, Ac-PL3-Asp-Npg-B5-Asp-Asn-Ala-Ala-Phe-Asn-PyrS2-3Thi-BztA-Gln-NH2] | 0.011 | 2.22 | 41 (≈ 78.6 µg/mL) |  |  |  |  |  |  | 16.9
CC(=O)N1CCC[C@]12CC=CCCCC1(CCCC=CCCCOC(=O)N3CC[C@@](C(=O)N[C@@H](Cc4ccsc4)C(=O)N[C@@H](Cc4csc5ccccc45)C(=O)N[C@@H](Cc4c[nH]cn4)C(N)=O)(C3)NC(=O)[C@H](CC(N)=O)NC(=O)[C@H](Cc3ccccc3)NC(=O)[C@H](C)NC(=O)[C@H](C)NC(=O)[C@H](CC(N)=O)NC(=O)[C@H](CC(=O)O)NC1=O)NC(=O)[C@H](CC(C)(C)C)NC(=O)[C@H](CC(=O)O)NC2=O (stereo partly drawn) [I-837, Ac-PL3-Asp-Npg-B5-Asp-Asn-Ala-Ala-Phe-Asn-PyrS2-3Thi-BztA-His-NH2] | 0.005 | 2.3 | 14 (≈ 27 µg/mL) |  |  |  |  |  |  | 23.8

Source: US20240116985A1, “STAPLED PEPTIDES AND METHODS THEREOF” (priority 2020, published 2024)
